Data as given in PMC8348070, “Structure-Based Designing, Solvent Less Synthesis of 1,2,3,4-Tetrahydropyrimidine-5-carboxylate Derivatives: A Combined In Vitro and In Silico Screening Approach” (Molecules, 2021).
≈ marks a conversion by molar mass, not a printed value.

Assays:
[1] = MTT cytotoxicity (cell viability) assay; format: cell-based, human; conditions: human, HepG2 cell line, 48 h, Figure 6
Method: (§1) Cells were treated with extracts/compound dissolved in DMSO with a final DMSO concentration of 0.05%. DMSO treated cells were used as control in all the experiments. Cell viability was determined by MTT assay as described by us previously. Briefly, HepG2 cells were treated with different concentrations of compounds for 48 h. […] Subsequently, 150 μL DMSO was added to dissolve formazan crystals and absorbance was measured at 490 nm in a microplate reader (Thermo Scientific, Waltham, MA, USA). The percentage of cell viability was calculated.

[2] = Antioxidant free radical scavenging activity using DPPH; format: biochemical; conditions: Figure 7 and text
Method: The potential of synthesized compounds to scavenge the free radicals were assessed by using diphenylpicrylhydrazyl (DPPH) as free radical [48].
These stock solutions were then subjected to prepare their dilutions up to 250 µg, 200 µg, 150 µg, 100 µg, 50 µg and 25 µg respectively. DPPH solution of 4% was prepared by mixing 0.004 g of DPPH in 100 ml methanol (commercial grade). Ascorbic acid was used as control and its solution was prepared by mixing 0.0017612 g into 100 ml of water having 100 µg concentration.
In test tubes 1 mL of sample from each diluted solution and 2 mL of DPPH solution was added. In the same way, 1 mL of the ascorbic acid was added along with 2 ml of DPPH as control and allowed to stand overnight.

HepG2 cells = experiment: MTT cytotoxicity (cell viability) assay; format: cell-based, human; conditions: Homo sapiens, HepG2, read-out: IC50 as anti-cancer agents
Method: as §1

melting point	Structure (SMILES)	IC50 at 48 h [1]	also measured
210 to 213 °C	CCOC(=O)C1=C(C)NC(=O)NC1c1cccc(F)c1 (stereo not drawn) [Compound 5b, ethyl 4-(3-fluorophenyl)-6-methyl-2oxo-1,2,3,4-tetrahydropyrimidine-5-carboxylate]		IC50 at 48 h ([1]; HepG2 cells): 11.3 µg/mL (≈ 40.5 µM)
	CCOC(=O)C1=C(C)NC(=O)NC1c1ccc(F)cc1 (stereo not drawn) [Compound 5c, ethyl 4-(4-fluorophenyl)-6-methyl-2oxo-1,2,3,4-tetrahydropyrimidine-5-carboxylate]	7.29 µg/mL (≈ 26.2 µM)	IC50 as anti-oxidant agents [2]: 6.261 µM
	CCOC(=O)C1=C(C)NC(=S)NC1c1ccccc1F (stereo not drawn) [Compound 5d, ethyl 4-(2-fluorophenyl)-6-methyl-2-thioxo-1,2,3,4-tetrahydropyrimidine-5-carboxylate]	25.5 µg/mL (≈ 86.7 µM)	
	CCOC(=O)C1=C(C)NC(=S)NC1c1cccc(F)c1 (stereo not drawn) [Compound 5e, ethyl 4-(3-fluorophenyl)-6-methyl-2-thioxo-1,2,3,4-tetrahydropyrimidine-5-carboxylate]	5.35 µg/mL (≈ 18.2 µM)	IC50 (HepG2 cells): 5.35 µg/mL (≈ 18.2 µM)
233 to 235 °C	CCOC(=O)C1=C(C)NC(=S)NC1c1ccc(F)cc1 (stereo not drawn) [Compound 5f, ethyl 4-(4-fluorophenyl)-6-methyl-2thioxo-1,2,3,4-tetrahydropyrimidine-5-carboxylate]		IC50 at 48 h ([1]; HepG2 cells): 18.7 µg/mL (≈ 63.5 µM)
	CCOC(=O)C1=C(C)NC(=S)NC1c1cccc(Cl)c1 (stereo not drawn) [Compound 5h, ethyl 4-(3-chlorophenyl)-6-methyl-2thioxo-1,2,3,4-tetrahydropyrimidine-5-carboxylate]	13 µg/mL (≈ 41.7 µM)	

Structure (SMILES)	melting point	IC50 at 48 h [1]	also measured
CCOC(=O)C1=C(C)NC(=O)NC1c1ccccc1F (stereo not drawn) [Compound 5a, 4-(2-fluorophenyl)-6-methyl-2oxo-1,2,3,4-tetrahydropyrimidine-5-carboxylate]	230 to 233 °C	16 µg/mL (≈ 57.5 µM)	
